Source: patent US11505570B2, “Organic acid salt of nicotinamide riboside, composition including organic acid salt, and preparation methods of organic acid salt and composition” (SHENZHEN DIECKMANN TECH CO., LTD, priority 2020, dated 2022)

Test: Stability test: storage in nitrogen-filled sealed bottles, purity test by HPLC every month
Assay type: physicochemical
Details: for purity by HPLC, Time (month) 1: 1 month; for purity by HPLC, Time (month) 2: 2 months; for purity by HPLC, Time (month) 3: 3 months; for purity by HPLC, Time (month) 4: 4 months; for purity by HPLC, Time (month) 5: 5 months; for purity by HPLC, Time (month) 6: 6 months; for Decomposition rate: over 6 months; for purity by HPLC, Time (month) 0: initial sample (0 month); for stability, molar ratio (NR to organic acid) 1:2 compared with 1:1: in words, comparison with the corresponding 1:1 product
Method: I. Preparation of samples
1. The products of Examples 1 to 4, Examples 10 to 13, and the comparative example were each dispensed into 13 bottles, each of 50 mg; and the bottles were filled with nitrogen and sealed. One of the bottles (initial sample) was first tested, and the remaining 12 bottles were divided into two groups (each with 6 bottles) and stored. The bottles in each group were numbered 1 to 6 according to a test sequence. The two groups of bottles were stored at 2° C. to 8° C. and −20° C., respectively; and one sample was tested every month.
2. The products of Examples 6 to 9 and Example 14 were each dispensed into 7 bottles, each of 50 mg; and the bottles were filled with nitrogen and sealed. One of the bottles (initial sample) was first tested, and the remaining 6 bottles were numbered 1 to 6 according to a test sequence and then stored at 2° C. to 8° C. One sample was tested every month.
II. Preparation of test sample solutions
One bottle of sample was taken at a time and prepared into a 5 mL or 10 mL solution using a 5 mL or 10 mL volumetric flask, and then the solution was filtered through a membrane to be ready for purity test by HPLC.
Mobile phase: isocratic elution: 5% water (0.1% formic acid)+95% methanol (0.1% formic acid)
Temperature and humidity: 23.0° C. and 54% RH
Sample dissolution: dissolution by methanol
Chromatographic column: ODS-2, 4.6 * 250 mm, 5 μm, and constant pressure: 12 Mpa to 13 Mpa
Running time: ≥15 min IV.

[1] = Table 2, stored at 2° C. to 8° C.

Question: For `NC(=O)c1ccc[n+]([C@@H]2O[C@H](CO)[C@@H](O)[C@H]2O)c1.[Cl-]` [Comparative Example, chlorine salt of NR, reference compound], which “purity by HPLC, Time (month) 1” value (Table 1, stored at −20° C.) is on record?
Answer: The value was 98.284.

Question: And the “purity by HPLC, Time (month) 2” value (Table 1, stored at −20° C.)?
Answer: The value was 98.087.

Question: What about the “purity by HPLC, Time (month) 3” value (Table 1, stored at −20° C.) of the same molecule?
Answer: The value was 97.701.

Question: What about the “purity by HPLC, Time (month) 4” value (Table 1, stored at −20° C.) of the same molecule?
Answer: Its value is 97.449.

Question: And the “purity by HPLC, Time (month) 5” value (Table 1, stored at −20° C.)?
Answer: Its value is 97.575.

Question: What about the “purity by HPLC, Time (month) 6” value (Table 1, stored at −20° C.) of the same molecule?
Answer: Its value is 97.210.

Question: What about the Decomposition rate (Table 1, stored at −20° C.) of the same molecule?
Answer: The Decomposition rate was 1.33%.

Question: What about the “purity by HPLC, Time (month) 0” value (Table 1, −20° C.) of the same molecule?
Answer: Its value is 98.525.

Question: And the “purity by HPLC, Time (month) 0” value (Table 2, 2° C. to 8° C.)?
Answer: Its value is 98.525.

Question: What about the “purity by HPLC, Time (month) 1” value [1] of the same molecule?
Answer: The value was 98.171.

Question: And the “purity by HPLC, Time (month) 2” value [1]?
Answer: Its value is 98.206.

Question: And the “purity by HPLC, Time (month) 3” value [1]?
Answer: The value was 97.540.

Question: And the “purity by HPLC, Time (month) 4” value [1]?
Answer: Its value is 97.612.

Question: And the “purity by HPLC, Time (month) 5” value [1]?
Answer: Its value is 97.384.

Question: What about the “purity by HPLC, Time (month) 6” value [1] of the same molecule?
Answer: The value was 97.109.

Question: What about the Decomposition rate [1] of the same molecule?
Answer: The Decomposition rate was 1.44%.

Question: For `NC(=O)c1ccc[n+]([C@@H]2O[C@H](CO)[C@@H](O)[C@H]2O)c1.O=C(O)CC(O)(CC(=O)O)C(=O)[O-]` [Example 1, citrate of NR (1:1)], which “purity by HPLC, Time (month) 1” value (Table 1, stored at −20° C.) is on record?
Answer: Its value is 98.828.

Question: What about the “purity by HPLC, Time (month) 2” value (Table 1, stored at −20° C.) of the same molecule?
Answer: Its value is 98.450.

Question: What about the “purity by HPLC, Time (month) 3” value (Table 1, stored at −20° C.) of the same molecule?
Answer: Its value is 98.190.

Question: And the “purity by HPLC, Time (month) 4” value (Table 1, stored at −20° C.)?
Answer: The value was 98.252.

Question: What about the “purity by HPLC, Time (month) 5” value (Table 1, stored at −20° C.) of the same molecule?
Answer: The value was 97.978.

Question: And the “purity by HPLC, Time (month) 6” value (Table 1, stored at −20° C.)?
Answer: The value was 97.814.

Question: What about the Decomposition rate (Table 1, stored at −20° C.) of the same molecule?
Answer: Its Decomposition rate is 1.13%.

Question: What about the “purity by HPLC, Time (month) 0” value (Table 1, −20° C.) of the same molecule?
Answer: The value was 98.930.

Question: And the “purity by HPLC, Time (month) 0” value (Table 2, 2° C. to 8° C.)?
Answer: Its value is 98.930.

Question: And the “purity by HPLC, Time (month) 1” value [1]?
Answer: The value was 98.198.

Question: What about the “purity by HPLC, Time (month) 2” value [1] of the same molecule?
Answer: Its value is 98.409.

Question: And the “purity by HPLC, Time (month) 3” value [1]?
Answer: The value was 98.171.

Question: What about the “purity by HPLC, Time (month) 4” value [1] of the same molecule?
Answer: Its value is 97.957.

Question: What about the “purity by HPLC, Time (month) 5” value [1] of the same molecule?
Answer: Its value is 97.823.

Question: And the “purity by HPLC, Time (month) 6” value [1]?
Answer: Its value is 97.670.

Question: And the Decomposition rate [1]?
Answer: The Decomposition rate was 1.27%.

Question: For `NC(=O)c1ccc[n+]([C@@H]2O[C@H](CO)[C@@H](O)[C@H]2O)c1.O=C(O)CC(O)(CC(=O)O)C(=O)O.O=C(O)CC(O)(CC(=O)O)C(=O)[O-]` [Example 2, citrate of NR (1:2)], which “purity by HPLC, Time (month) 1” value (Table 1, stored at −20° C.) is on record?
Answer: The value was 98.317.

Question: What about the “purity by HPLC, Time (month) 2” value (Table 1, stored at −20° C.) of the same molecule?
Answer: The value was 98.079.

Question: What about the “purity by HPLC, Time (month) 3” value (Table 1, stored at −20° C.) of the same molecule?
Answer: The value was 98.168.

Question: And the “purity by HPLC, Time (month) 4” value (Table 1, stored at −20° C.)?
Answer: Its value is 97.933.

Question: What about the “purity by HPLC, Time (month) 5” value (Table 1, stored at −20° C.) of the same molecule?
Answer: Its value is 97.806.

Question: And the “purity by HPLC, Time (month) 6” value (Table 1, stored at −20° C.)?
Answer: The value was 97.788.

Question: What about the Decomposition rate (Table 1, stored at −20° C.) of the same molecule?
Answer: The Decomposition rate was 0.69%.

Question: And the “purity by HPLC, Time (month) 0” value (Table 1, −20° C.)?
Answer: The value was 98.471.

Question: What about the “purity by HPLC, Time (month) 0” value (Table 2, 2° C. to 8° C.) of the same molecule?
Answer: Its value is 98.471.

Question: And the “purity by HPLC, Time (month) 1” value [1]?
Answer: Its value is 98.492.

Question: What about the “purity by HPLC, Time (month) 2” value [1] of the same molecule?
Answer: Its value is 98.240.

Question: And the “purity by HPLC, Time (month) 3” value [1]?
Answer: Its value is 98.097.

Question: What about the “purity by HPLC, Time (month) 4” value [1] of the same molecule?
Answer: The value was 97.626.

Question: What about the “purity by HPLC, Time (month) 5” value [1] of the same molecule?
Answer: Its value is 97.704.

Question: What about the “purity by HPLC, Time (month) 6” value [1] of the same molecule?
Answer: The value was 97.498.

Question: What about the Decomposition rate [1] of the same molecule?
Answer: The Decomposition rate was 0.99%.

Question: And the “stability, molar ratio (NR to organic acid) 1:2 compared with 1:1” value?
Answer: Its value is “higher stability”.

Question: For `NC(=O)c1ccc[n+]([C@@H]2O[C@H](CO)[C@@H](O)[C@H]2O)c1.O=C([O-])C[C@H](O)C(=O)O` [Example 3, malate of NR (1:1)], which “purity by HPLC, Time (month) 1” value (Table 1, stored at −20° C.) is on record?
Answer: Its value is 98.691.

Question: And the “purity by HPLC, Time (month) 2” value (Table 1, stored at −20° C.)?
Answer: Its value is 98.310.

Question: What about the “purity by HPLC, Time (month) 3” value (Table 1, stored at −20° C.) of the same molecule?
Answer: Its value is 98.288.

Question: And the “purity by HPLC, Time (month) 4” value (Table 1, stored at −20° C.)?
Answer: The value was 98.076.

Question: And the “purity by HPLC, Time (month) 5” value (Table 1, stored at −20° C.)?
Answer: The value was 97.912.

Question: And the “purity by HPLC, Time (month) 6” value (Table 1, stored at −20° C.)?
Answer: The value was 97.645.

Question: What about the Decomposition rate (Table 1, stored at −20° C.) of the same molecule?
Answer: The Decomposition rate was 0.94%.

Question: And the “purity by HPLC, Time (month) 0” value (Table 1, −20° C.)?
Answer: The value was 98.573.

Question: What about the “purity by HPLC, Time (month) 0” value (Table 2, 2° C. to 8° C.) of the same molecule?
Answer: Its value is 98.573.

Question: And the “purity by HPLC, Time (month) 1” value [1]?
Answer: The value was 98.482.

Question: What about the “purity by HPLC, Time (month) 2” value [1] of the same molecule?
Answer: The value was 98.185.

Question: And the “purity by HPLC, Time (month) 3” value [1]?
Answer: Its value is 98.270.

Question: And the “purity by HPLC, Time (month) 4” value [1]?
Answer: The value was 97.946.

Question: What about the “purity by HPLC, Time (month) 5” value [1] of the same molecule?
Answer: Its value is 97.592.

Question: And the “purity by HPLC, Time (month) 6” value [1]?
Answer: Its value is 97.337.

Question: What about the Decomposition rate [1] of the same molecule?
Answer: Its Decomposition rate is 1.25%.

Question: Which results are given for `NC(=O)c1ccc[n+]([C@@H]2O[C@H](CO)[C@@H](O)[C@H]2O)c1.O=C(O)C[C@H](O)C(=O)O.O=C([O-])C[C@H](O)C(=O)O` [Example 4, malate of NR (1:2)]?
Answer: purity by HPLC, Time (month) 1 (Table 1, stored at −20° C.): 98.547; purity by HPLC, Time (month) 2 (Table 1, stored at −20° C.): 98.629; purity by HPLC, Time (month) 3 (Table 1, stored at −20° C.): 98.316; purity by HPLC, Time (month) 4 (Table 1, stored at −20° C.): 98.207; purity by HPLC, Time (month) 5 (Table 1, stored at −20° C.): 98.081; purity by HPLC, Time (month) 6 (Table 1, stored at −20° C.): 98.100; Decomposition rate (Table 1, stored at −20° C.): 0.73%; purity by HPLC, Time (month) 0 (Table 1, −20° C.): 98.818; purity by HPLC, Time (month) 0 (Table 2, 2° C. to 8° C.): 98.818; purity by HPLC, Time (month) 1 [1]: 98.424; purity by HPLC, Time (month) 2 [1]: 98.360; purity by HPLC, Time (month) 3 [1]: 98.298; purity by HPLC, Time (month) 4 [1]: 98.239; purity by HPLC, Time (month) 5 [1]: 97.707; purity by HPLC, Time (month) 6 [1]: 97.816; Decomposition rate [1]: 1.01%; stability, molar ratio (NR to organic acid) 1:2 compared with 1:1: higher stability
